Consider one compound from patent US12441708B2, “Cereblon ligands and bifunctional compounds comprising the same” (Arvinas Operations, Inc., priority 2017, dated 2025).

For the assay, the system named is c-Myc. The experiment in a line: BRD4 human c-Myc ELISA assay in 22RV-1 cells. The format is cell-based. Conditions: 22Rv1, 18 hours. The procedure: 6. BRD4 Human c-Myc ELISA Assay Protocol
22RV-1 cells were seeded at 30,000 cells/well at a volume of 75 μL/well in RPMI with 10% FBS media in 96-well plates and grown overnight at 37° C. Cells were dosed with compounds at 4× concentration diluted in 0.4% DMSO; compounds were serially diluted 1:3 for 8-point dose curve. Twenty-five (25) ul of the compounds was added to cells for a final concentration starting at 300 nM-0.3 nM or 1 uM-1 nM in 0.1% DMSO and incubated for 18 hours. Media was aspirated, cells were washed 1× with PBS and aspirated. Cells were lysed in 50 ul RIPA buffer (50 mM Tris pH8, 150 mM NaCl, 1% Tx-100, 0.1% SDS, 0.5% sodium deoxycholate) supplemented with protease and phosphatase inhibitors. Plates were incubated on ice for 15 minutes then centrifuged at 4° C. for 10 minutes at 4000 rpm. Fifty (50) ul of cleared lysate from a 96-well assay plate was added into 96-well c-myc ELISA plate (Novex, Life Technologies Catalog #KH02041). c-myc standard was reconstituted with standard diluent buffer; standard curve range of 333 pg/ml-0 pg/ml was prepared, diluted 1:2 for 8-point dose curve. The rest of the assay was performed following the protocol from the c-myc ELISA kit. Data was analyzed and plotted using GraphPad Prism software.
Background: In an ELISA, binding on a coated surface is turned into a signal by an enzyme label.

With `Cc1sc2c(c1C)C(c1ccc(Cl)cc1)=NC(CC(=O)NCCCOCCCOc1ccc3ncc(-n4ccc(=O)[nH]c4=O)cc3c1)c1nnc(C)n1-2` (stereo not shown) [PROTAC-1, 2-(4-(4-chlorophenyl)-2,3,9-trimethyl-6H-thieno[3,2-f] [1,2,4]triazolo[4,3-a][1,4]diazepin-6-yl)-N-(3-(3-((3-(2,4-dioxo-3,4-dihydropyrimidin-1(2H)-yl)quinolin-6-yl)oxy)propoxy)propyl)acetamide], the IC50 is at least 100 nM.

The IC50 is the concentration that inhibits the measured activity by half. Read a low IC50 as greater potency.
